Measurements published in patent US20140050778A1, “NUCLEIC ACID BINDING COMPOUNDS, METHODS OF MAKING, AND USE THEREOF” (UNIVERSITY OF ROCHESTER, priority 2010, published 2014).
Where two headings read alike, the source gives them in different places.

Key:
[1] = tested on: human fibroblasts; assay: Cell permeability by fluorescence microscopy; format: cell-based; details: intrinsic fluorescence, 4 and 5 incubated as a mixture
Method: For cell permeability studies, human fibroblasts or mouse myoblasts grown to 80% confluence were exposed to compounds for 12 hours in a 96 well tissue culture plate. After removal of the culture media (DMEM, with 10% FBS, 1% pen-strep (GIBCO)) the cells were washed twice with PBS to remove excess compounds. Cells were then imaged while in buffer under a fluorescence microscope (Olympus IX70) in the 96-well plate using a 460 nm emission filter.
(§1) SPR and fluorescence titration experiments, performed using the protocol described in Examples 3 and 4 above, except using as the target a highly conserved RNA sequence responsible for regulating the production of the Gag-Pol polyprotein via a −1 ribosomal frameshift, which occurs along a “slippery sequence” in gag-pol mRNA (SEQ ID NO: 7). This “frameshift stimulatory sequence” (or “HIV-1 FSS”) consists of an upper stemloop and a lower stem, separated by a purine bulge in the most common types of HIV (FIG. 19). For the fluorescent titration experiments, the upper stemloop of SEQ ID NO: 7 was employed. Cell uptake and toxicity studies were carried out using human fibroblasts according to Example 5 above.

[2] = tested on: mouse myoblasts; assay: MTT toxicity assay; format: cell-based; details: individually
Method: For toxicity studies, mouse myoblasts or human fibroblasts were plated in a 96-well tissue culture plate in DMEM (10% fetal bovine serum, 100 units/ml penicillin, […]) and allowed to grow to approximately 80% confluence at 37° C. under CO2. Varying compound concentrations (up to 1 mM) were incubated with cells (48 hours, 37° C.). Media was then removed, and 3-(4,5-dimethylthiazol-2-yl)-2,5-diphenyltetrazolium bromide (“MTT”) in media was added to each well and incubated at 37° C. for 4 h. After removal of the MTT media, isopropanol (100 pp was added, and absorbance was measured at 600 nm on a Modulus microplate reader (Turner Biosystems).

[3] = tested on: (CUG)10 RNA (SEQ ID NO: 3); assay: SPR binding to immobilized biotinylated RNA; details: (CUG)10; for improvement in affinity relative to compound 1: SPR KD versus filter-binding KD of compound 1
[4] = tested on: HIV-1 FSS RNA (SEQ ID NO: 7); assay: SPR binding to immobilized biotinylated RNA
Method: SPR binding measurements were performed on a Biacore-X instrument (Biacore, Inc., Uppsala, Sweden) with two flow channels (FC1 and FC2). 5′-Biotinylated-RNA sequences, with a C6 linker separating the biotin label from the RNA (Integrated DNA Technologies Inc.) were immobilized on streptavidin (Rockland Immunochemicals) functionalized carboxylmethyl dextran coated sensor chips (CM5, G.E. Healthcare) using EDC/NHS (Advanced ChemTech) coupling chemistry. Filtered (0.2μ), degassed and autoclaved HBS-N buffer (0.01M Hepes, pH=7.4, 0.15 M NaCl) was employed as sample and as running buffer for all SPR experiments. A typical protocol for an experiment is as follows: A CM5 sensor chip was allowed to equilibrate to room temperature and then docked into the instrument. Following priming with running buffer, FC1 and FC2 were conditioned by manual injection of 20 μL aqueous NaOH (50 mM) at a flow rate of 30 μL/min. This was repeated 3 times followed by a wash command. Next, the carboxyl groups on the sensor chip surface in both flow cells were activated separately by injecting 60 μL of freshly prepared 1:1 mixture of EDC (0.4 M) and NHS (0.1 M) at a 5 μL/min flow rate followed by a wash. […] After washing, the surface was deactivated with 60 μL injection of ethanolamine (1M, pH=8.5) at 5 μL/min. The flow cells were primed, and the streptavidin surface in FC1 alone was blocked with 30 μL of biotin (20 μM in HBS-N) at 5 μL/min. The RNA (200 nM in running buffer, HBS-N) to be immobilized was unfolded by heating above its predicted melting temperature in a heated block for 2 min and then allowed to refold by cooling gradually to room temperature. The RNA was then immobilized in FC2 alone to response units ranging from 200-1000 RU using a 5 μL/min flow rate. Representative sensorgrams for the immobilization procedure is shown in FIGS. 2A-B. Two 20 μL aliquots of NaCl (0.5 M) were injected at a 30 μL/min flow rate to remove non-specifically bound RNA. The level of RNA immobilized was noted when the baseline was stable, usually after repeated buffer injection followed by a “prime” command. Binding measurements were performed by flowing various concentrations of the compounds to be analyzed over the immobilized RNA and recording the reference-subtracted (FC2−FC1) sensorgrams. For kinetic analysis, at least five sensorgrams corresponding to different concentrations of compound (usually ranging from 0.05-1 μM in HBS-N) were obtained using flow rates of either 60 μL/min or 30 μL/min. The experimental sensorgrams were globally fitted to a 1:1 binding equation (Biaevaluation software) to obtain association rates (ka) and dissociation rates ([…]) as well as equilibrium binding constants (KD). To measure the binding stoichiometry (n), the relations in equations (1-3) below were used: […]
where RUmax is the maximum resonance response unit at saturation, RURNA is the amount RU of RNA immobilized, n is the stoichiometry, MWcompound and MWRNA are molecular weights of compound and RNA respectively, and RUeq represents the resonance response at steady-state (equilibrium). The response units at equilibrium were subjected to Scatchard binding plots of (r/Cfree vs. r). […]
as §1

Row | SMILES | cell membrane penetration / localization [1] | toxicity (MTT) [2] | Residence time (t1/2) for compound binding to RNA [3] [min] | improvement in affinity relative to compound 1 [3] | Off-rates (koff) ([3]; SPR) [s⁻¹] | On-rates (kon) ([3]; SPR) [M⁻¹ s⁻¹] | Kd ([3]; SPR, read-out: apparent KD) [nM] | ka ([3]; Table 7, SPR) | kd ([3]; Table 7, SPR) | Kd ([3]; Table 7, SPR, read-out: KD) [nM] | Residence time (t1/2) for compound binding to RNA [4] [min] | Off-rates (koff) ([4]; SPR) [s⁻¹] | On-rates (kon) ([4]; SPR) [M⁻¹ s⁻¹] | Kd ([4]; SPR, read-out: apparent KD) [nM]
1 | CCc1nc2cc3ccccc3cc2cc1C(=O)N1CCC[C@H]1C(=O)N[C@@H](C/C=C\C[C@H](NC(=O)[C@@H]1CCCN1C(=O)c1cc2cc3ccccc3cc2nc1CC)C(=O)N[C@@H](CCCCN)C(=O)NCCCN)C(=O)N[C@@H](CCCCN)C(=O)NCCCN [Compound 4] | Localization is shown, especially in the nucleus of cells | increasing toxicity was observed in mouse myoblasts above 100 μM | 9.7882 | roughly 50 fold | 0.00118 | 27800 | 45 ± 3.3 | ka = 2.78E+4/M * s | kd = 1.18E−3/s | 45 | 0.7548 | 0.0153 | 11300 | 1242.5 ± 0.6
2 | CCc1nc2cc3ccccc3cc2cc1C(=O)N1CCC[C@H]1C(=O)N[C@@H](C/C=C/C[C@H](NC(=O)[C@@H]1CCCN1C(=O)c1cc2cc3ccccc3cc2nc1CC)C(=O)N[C@@H](CCCCN)C(=O)NCCCN)C(=O)N[C@@H](CCCCN)C(=O)NCCCN [Compound 5] | Localization is shown, especially in the nucleus of cells | increasing toxicity was observed in mouse myoblasts above 100 μM | 4.6762 | roughly 50 fold | 0.00247 | 28400 | 88.2 ± 0.28 | ka = 2.84E+4/M * s | kd = 2.47E−3/s | 88 | 2.939 |  |  | 
